The values below come from patent US9284325B2, “Spectinamides as anti-tuberculosis agents” (UNIVERSITY OF TENNESSEE RESEARCH FOUNDATION, priority 2009, dated 2016).

Assay [1] relates to Strenotrophomonas maltophilia ATCC 13637. Description: MIC determination by microbroth dilution. The assay is classed as cell-based. (In general: Dilution methods test growth across graded concentrations, often in twofold steps.)
For assay [2], the system named is Strep. pneumoniae DAW27 or strain R6. The experiment in a line: MIC determination by microbroth dilution. The assay is classed as cell-based, Streptococcus pneumoniae. The settings on record: Streptococcus pneumoniae; Strep. pneumoniae DAW27 or strain R6 (for 1443-1544); read-out: MIC S. pneumoniae.
Assay [3] has as its system S. aureus 8325 or strain ATCC 29213. The experiment in a line: MIC determination by microbroth dilution. The settings on record: Staphylococcus aureus, ATCC29213; S. aureus 8325 or strain ATCC 29213 (for 1471-1544). The assay is classed as cell-based, Staphylococcus aureus.
The next assay has as its system P. aeruginosa PAO1. Description: MIC determination by microbroth dilution. The settings on record: Pseudomonas aeruginosa. It counts as cell-based, Pseudomonas aeruginosa.
Assay [4] deals with Proteus mirabilis ATCC 25933. Description: MIC determination by microbroth dilution. The settings on record: ATCC25933. The assay is classed as cell-based.
The subject of a further assay is E. faecalis ATCC 33186. Description: MIC determination by microbroth dilution. The assay is classed as cell-based, Enterococcus faecalis. The settings on record: Enterococcus faecalis, ATCC33186.
Assay [5] concerns Burkholderia cepacia ATCC 25416. Description: MIC determination by microbroth dilution. The assay is classed as cell-based. The settings on record: ATCC25416, read-out: MIC B. cepcia.
In a further assay the test system is M. tuberculosis H37Rv. The experiment in a line: MIC determination by microbroth dilution, anti-tuberculosis activity. The assay is classed as cell-based, Mycobacterium tuberculosis. The settings on record: Mycobacterium tuberculosis, H37RV, 168 h; read-out: MIC.
The next assay has as its system E. coli K12 ΔtolC. Description: microbe, parasite or virus in culture. It counts as cell-based. The settings on record: Escherichia coli, read-out: MIC E. coli K12 ΔtolC.
Assay [6] has as its system Strep. pyogenes ATCC 700294. Description: MIC determination by microbroth dilution. It counts as cell-based, Streptococcus pyogenes. The settings on record: Streptococcus pyogenes, ATCC700294, read-out: MIC S. pyogenes.
Another assay has as its system E. coli K12. Description: MIC determination by microbroth dilution. It counts as cell-based, Escherichia coli. The settings on record: Escherichia coli, K12.
Assay [7] deals with Proteus vulgaris ATCC 33420. The experiment in a line: MIC determination by microbroth dilution. It counts as cell-based. The settings on record: ATCC33420.
Assay [8] relates to Acinetobacter baumannii ATCC 19606. Description: MIC determination by microbroth dilution. It counts as cell-based. The settings on record: ATCC19606.
For assay [9], the system named is Klebsiella pneumoniae ATCC 33495. The experiment in a line: MIC determination by microbroth dilution. The assay is classed as cell-based. The settings on record: ATCC33495.
For the next assay, the system named is E. coli ribosomes. The assay is classed as biochemical. The settings on record: for IC50, 50% inhibition of luciferase biosynthesis in S30 assay: E. coli S30 transcription/translation assay.
The next assay has as its system B. anthracis Sterne 34F2. Description: microbe, parasite or virus in culture. The settings on record: Bacillus anthracis, STERNE34F2, read-out: MIC B. anthracis 34F2. It counts as cell-based, Bacillus anthracis.

SMILES strings stand for the structures. Counter-ions that a name gives are not always drawn.

In the case of `CN[C@@H]1[C@H](O)[C@H](NC)C2O[C@]3(O)C(OC2[C@H]1O)O[C@H](C)C[C@H]3NC(=O)Cc1ncccn1` (stereo partly drawn) [Compound 1439, 3′-Dihydro-3′-deoxy-4(R)-(pyrimidin-2yl)acetylamino spectinomycin Dihydrochloride], the MIC is above 200 µg/mL in assay [1]; 12.5 µg/mL in assay [2]; 25 µg/mL in assay [3]; 50 µg/mL with P. aeruginosa PAO1; above 200 µg/mL in assay [4]; 50 µg/mL in the assay on E. faecalis ATCC 33186. Moreover, the MIC in assay [5] is above 200 µg/mL; in the assay on M. tuberculosis H37Rv, above 200 µg/mL; in the assay on E. coli K12 ΔtolC it was 12.5 µg/mL; in assay [6] it was above 200 µg/mL; against E. coli K12, 100 µg/mL; in [7], above 200 µg/mL. In addition, the MIC in assay [8] is above 200 µg/mL; in assay [9] it was above 200 µg/mL; in the assay on B. anthracis Sterne 34F2 it was 50 µg/mL. The “IC50, 50% inhibition of luciferase biosynthesis in S30 assay” value (“IC50, 50% inhibition” for short) with E. coli ribosomes was determined as 2.63 µg/mL. Further, the “relative inhibitory activity on luciferase production” value in the assay with E. coli ribosomes (tested at 0.66 and 6.6 μM, FIG. 5) is “less active than 1329”.

On to `CN[C@@H]1[C@H](O)[C@H](NC)C2O[C@]3(O)C(OC2[C@H]1O)O[C@H](C)C[C@H]3NC(=O)Cc1cscn1` (stereo partly drawn) [Compound 1443, 3′-Dihydro-3′-deoxy-4(R)-(thiazol-4-yl)acetylamino spectinomycin trihydrobromide], for which the MIC in [1] was above 200 µg/mL; in assay [2] it was 12.5 µg/mL; in assay [3] it was 50 µg/mL; against P. aeruginosa PAO1, above 200 µg/mL; in assay [4] it was above 200 µg/mL; in the assay with E. faecalis ATCC 33186 it was 50 µg/mL. Moreover, the MIC is above 200 µg/mL in assay [5]; 1.6 µg/mL in the assay with M. tuberculosis H37Rv; 200 µg/mL in the assay on E. coli K12 ΔtolC; 6.25 µg/mL in assay [6]; 100 µg/mL in the assay on E. coli K12; above 200 µg/mL in assay [7]. Moreover, the MIC was above 200 µg/mL in [8], 100 µg/mL in assay [9] and 1.6 µg/mL with B. anthracis Sterne 34F2. The “IC50, 50% inhibition” value in the assay on E. coli ribosomes came out at 0.29 µg/mL.

Consider `CN[C@@H]1[C@H](O)[C@H](NC)C2O[C@]3(O)C(OC2[C@H]1O)O[C@H](C)C[C@H]3NC(=O)Cc1csc(N)n1` (stereo partly drawn) [Compound 1444, 3′-Dihydro-3′-deoxy-4(R)-(2-aminothiazol-4-yl)acetylamino spectinomycin trihydrobromide], for which the MIC in [1] is above 200 µg/mL; in assay [2], 25 µg/mL; in assay [3] it was 100 µg/mL; in the assay with P. aeruginosa PAO1, above 200 µg/mL; in assay [4], above 200 µg/mL; against E. faecalis ATCC 33186, 50 µg/mL. The MIC in [5] was above 200 µg/mL; in the assay on M. tuberculosis H37Rv, 3.1 µg/mL; with E. coli K12 ΔtolC, 200 µg/mL; in [6], 25 µg/mL; against E. coli K12, 100 µg/mL; in [7] it was above 200 µg/mL. Further, the MIC in [8] was above 200 µg/mL; in assay [9], 100 µg/mL; in the assay on B. anthracis Sterne 34F2, 6.25 µg/mL. Moreover, the “IC50, 50% inhibition” value in the assay on E. coli ribosomes is 0.12 µg/mL.

With `CN[C@@H]1[C@H](O)[C@H](NC)C2O[C@]3(O)C(OC2[C@H]1O)O[C@H](C)C[C@H]3NC(=O)Cc1ccc(F)cn1` (stereo partly drawn) [Compound 1445, 3′-Dihydro-3′-deoxy-4(R)-(5-fluoropyridin-2-yl)acetylamino spectinomycin trihydrobromide], the MIC was above 200 µg/mL in assay [1]; 12.5 µg/mL in [2]; 25 µg/mL in [3]; above 200 µg/mL with P. aeruginosa PAO1; above 200 µg/mL in assay [4]; 25 µg/mL with E. faecalis ATCC 33186. Moreover, the MIC was above 200 µg/mL in assay [5]; 0.4 µg/mL in the assay with M. tuberculosis H37Rv; 200 µg/mL in the assay on E. coli K12 ΔtolC; 12.5 µg/mL in assay [6]; 100 µg/mL in the assay on E. coli K12; above 200 µg/mL in [7]. For the same compound, the MIC was above 200 µg/mL in [8], 100 µg/mL in [9] and 25 µg/mL with B. anthracis Sterne 34F2. Moreover, in the assay on E. coli ribosomes, the “IC50, 50% inhibition” value is 0.25 µg/mL.

On to `CN[C@@H]1[C@H](O)[C@H](NC)C2O[C@]3(O)C(OC2[C@H]1O)O[C@H](C)C[C@H]3NC(=O)Cc1ccc(OC)cc1` (stereo partly drawn) [Compound 1446, 3′-Dihydro-3′-deoxy-4(R)-(4-methoxy-phenyl)acetylamino spectinomycin Dihydrochloride], for which the MIC in assay [1] was above 200 µg/mL; in assay [2], 6.25 µg/mL; in assay [3] it was above 200 µg/mL; in the assay with P. aeruginosa PAO1, above 200 µg/mL; in [4], above 200 µg/mL; against E. faecalis ATCC 33186, 200 µg/mL. The MIC was above 200 µg/mL in [5]; 12.5 µg/mL in the assay with M. tuberculosis H37Rv; above 200 µg/mL with E. coli K12 ΔtolC; 6.25 µg/mL in [6]; 200 µg/mL in the assay on E. coli K12; above 200 µg/mL in [7]. Besides, the MIC in [8] is above 200 µg/mL; in [9], 200 µg/mL; with B. anthracis Sterne 34F2, 100 µg/mL. Also, the “IC50, 50% inhibition” value in the assay on E. coli ribosomes stood at 0.68 µg/mL.

For `CN[C@@H]1[C@H](O)[C@H](NC)C2O[C@]3(O)C(OC2[C@H]1O)O[C@H](C)C[C@H]3NC(=O)Cc1cccc(F)c1F` (stereo partly drawn) [Compound 1447, 3′-Dihydro-3′-deoxy-4(R)-(2,3-difluoro-phenyl)acetylamino spectinomycin Dihydrochloride], the MIC in [1] is above 200 µg/mL; in [2], 6.25 µg/mL; in [3], above 200 µg/mL; in the assay on P. aeruginosa PAO1 it was above 200 µg/mL; in [4], above 200 µg/mL; in the assay on E. faecalis ATCC 33186, 100 µg/mL. Further, the MIC in assay [5] is above 200 µg/mL; with M. tuberculosis H37Rv it was 50 µg/mL; in the assay with E. coli K12 ΔtolC it was above 200 µg/mL; in [6], 6.25 µg/mL; with E. coli K12, 200 µg/mL; in assay [7], above 200 µg/mL. The MIC in assay [8] is above 200 µg/mL; in assay [9], 200 µg/mL; in the assay with B. anthracis Sterne 34F2 it was 100 µg/mL. In the assay on E. coli ribosomes, the “IC50, 50% inhibition” value came out at 0.22 µg/mL.

`CN[C@@H]1[C@H](O)[C@H](NC)C2O[C@]3(O)C(OC2[C@H]1O)O[C@H](C)C[C@H]3NC(=O)Cc1ccccc1OC` (stereo partly drawn) [Compound 1448, 3′-Dihydro-3′-deoxy-4(R)-(2-methoxy-phenyl)acetylamino spectinomycin Dihydrochloride]: the MIC in assay [1] was above 200 µg/mL; in assay [2], 25 µg/mL; in assay [3] it was above 200 µg/mL; with P. aeruginosa PAO1 it was above 200 µg/mL; in assay [4], above 200 µg/mL; against E. faecalis ATCC 33186, above 200 µg/mL. The MIC in assay [5] was 200 µg/mL; in the assay on M. tuberculosis H37Rv it was 200 µg/mL; with E. coli K12 ΔtolC it was above 200 µg/mL; in assay [6], 25 µg/mL; in the assay on E. coli K12 it was above 200 µg/mL; in assay [7], above 200 µg/mL. For the same compound, the MIC (in assay [8]; in assay [9]; in the assay on B. anthracis Sterne 34F2) was above 200 µg/mL throughout. Moreover, the “IC50, 50% inhibition” value in the assay on E. coli ribosomes stood at 2.41 µg/mL.

In the case of `CN[C@@H]1[C@H](O)[C@H](NC)C2O[C@]3(O)C(OC2[C@H]1O)O[C@H](C)C[C@H]3NC(=O)c1cnccn1` (stereo partly drawn) [Compound 1453, 3′-Dihydro-3′-deoxy-4(R)-(pyrazine-2-yl)carboxylicamino spectinomycin tetrahydrobromide], the MIC in assay [1] is above 200 µg/mL; in assay [2], 25 µg/mL; in assay [3], above 200 µg/mL; against P. aeruginosa PAO1 it was above 200 µg/mL; in assay [4] it was above 200 µg/mL; against E. faecalis ATCC 33186 it was above 200 µg/mL. For the same compound, the MIC in [5] is above 200 µg/mL; in the assay with M. tuberculosis H37Rv, above 200 µg/mL; in the assay on E. coli K12 ΔtolC, 200 µg/mL; in [6], 25 µg/mL; against E. coli K12 it was above 200 µg/mL; in [7], above 200 µg/mL. For the same compound, the MIC (in assay [8]; in assay [9]; in the assay on B. anthracis Sterne 34F2) was above 200 µg/mL throughout. Besides, in the assay on E. coli ribosomes, the “IC50, 50% inhibition” value was determined as 1.04 µg/mL.

Take `CN[C@@H]1[C@H](O)[C@H](NC)C2O[C@]3(O)C(OC2[C@H]1O)O[C@H](C)C[C@H]3NC(=O)Cc1nc2ccccc2o1` (stereo partly drawn) [Compound 1465, 3′-Dihydro-3′-deoxy-4(R)-(benzooxazol-2-yl)acetylamino spectinomycin trihydrobromide]: the MIC in [1] was above 200 µg/mL; in assay [2], 12.5 µg/mL; in [3], above 200 µg/mL; against P. aeruginosa PAO1, above 200 µg/mL; in assay [4], above 200 µg/mL; against E. faecalis ATCC 33186, 100 µg/mL. For the same compound, the MIC in assay [5] is above 200 µg/mL; in the assay with M. tuberculosis H37Rv, 3.12 µg/mL; with E. coli K12 ΔtolC, 12.5 µg/mL; in assay [6] it was 12.5 µg/mL; against E. coli K12, above 200 µg/mL; in assay [7], above 200 µg/mL. The MIC is above 200 µg/mL in assay [8], above 200 µg/mL in assay [9] and 100 µg/mL in the assay on B. anthracis Sterne 34F2. Moreover, the “IC50, 50% inhibition” value in the assay on E. coli ribosomes came out at 0.50 µg/mL.
